pEC50, pIC50: −log10 of the molar value.
Assays:
[1] = system: IL-6 cytokine output from THP-1s; experiment: THP-1 AlphaLISA IL-6 cytokine assay; type: cell-based, human; conditions: Homo sapiens; PMA-differentiated THP-1 cells, LPS 24 hr then Nigericin 1 hour
Outline: (§1)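 AlphaLISA read-out of cytokine released into supernatants of differentiated THP-1 cells. Cells were PMA-treated for 72 h, exposed to compound for 30 min, stimulated with LPS for 24 h, then given nigericin for 1 h before harvest. IC50 values come from normalised concentration-response curves.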

[2] = system: IL-1β cytokine output from THP-1s; experiment: THP-1 AlphaLISA IL-1β cytokine assay; type: cell-based, human; conditions: Homo sapiens, THP-1, PMA-differentiated THP-1 cells, LPS 24 hr then Nigericin 1 hour; read-out: IL-1β (IC50)
Outline: as §1

[3] = system: NQO1; experiment: NQO1 enzyme activation assay as a readout of NRF2 activation in THP-1 cells; type: cell-based; conditions: Homo sapiens; for Emax: THP-1, percentage activation at top concentration, normalised to DMF (100%) and vehicle controls; for pEC50: differentiated THP-1 cells, LPS, 48 hr
Protocol: NQO1 Enzyme Activation Assay as a Readout of NRF2 Activation in THP-1 Cellular Background
NAD(P)H dehydrogenase [quinone] […] Induction of this gene is concomitant with the inhibition of proinflammatory cytokine transcription and suppression of the inflammatory response (Kobayashi E. H. et al., 2016). The NQO1 enzyme activation activities of compounds of formula (IW-1) were determined using a cellular based NQO1 activation assay (Abcam). The NQO1 activation assay was run in differentiated THP-1 cells (a human monocyte-like cell line) as described below. All reagents described are from Sigma-Aldrich unless specified otherwise. Compounds were prepared as 10 mM DMSO stocks.
THP-1 cells were expanded as a suspension up to 80% confluence in appropriate growth medium. Cells were harvested, suspended, treated with phorbol 12-myristate 13-acetate (PMA) and plated according to the cell density required for each plate format over a 72 hr period (37° C./5% CO2).
Following 72 hrs of THP-1 cell incubation, cellular medium was removed and replaced with fresh media. Working concentrations of compounds were prepared and pre-incubated for 30 minutes (37° C./5% CO2). Compound treatment was then applied to the PMA treated THP-1 cell plate followed by LPS treatment. A ‘low’ (DMSO vehicle only) control and ‘high’ (designated concentration of dimethyl fumarate) was applied to each plate at the point of compound treatment. Cells were subsequently incubated for a 48 hr period (37° C./5% C02) after which all NQO1 assay reagents were prepared according to the manufacturer's instructions. NQO1 extraction buffer was applied to PBS washed THP-1 cells and incubated on ice for 15 minutes to prepare THP-1 lysates for the NQO1 activity assay. THP-1 lysates were diluted 1:5 with PBS and treated with a 1:1 volume of kit prepared NQO1 Reaction Buffer. Absorbance was subsequently measured kinetically on an appropriate reader over a 6 minute period.
For activation determination, the fold change in response per well was determined by first calculating the average NQO1 activation data for the vehicle control and then dividing the individual well response by the averaged NQO1 response for the vehicle control as shown below: Fold change=(Sample value)/MeanMin Where ‘Min’=vehicle control only
The relative 50% activation concentration (EC50) was determined from the resulting fold change response curve. The maximum efficacy (Emax) was reported as the percentage activation calculated at the top concentration of compound used in the titration applied. If a full curve was unattainable preventing a correct curve fit, the Emax value was extrapolated using existing curve data. All percentage activation data were normalised to the DMF and vehicle controls, meaning the Emax represents the percentage […] achieved by a compound at a particular concentration relative to that achieved by DMF (set as the ‘High’ control and therefore representative of 100% activation).

[4] = system: NRF2; experiment: NRF2 +/-GSH activation assay (DiscoverX PathHunter NRF2 translocation kit, U2OS cells); type: cell-based; conditions: Homo sapiens, GSH condition not stated in Table 5; for Emax: U2OS, normalised to dimethyl fumarate 'High' control, read-out: NRF2 activation Emax; for pEC50: U2OS PathHunter cells, 6 hours, read-out: NRF2 activation EC50
Outline: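 Percent activation, normalised to dimethyl fumarate (high) and vehicle (low) controls, was fitted for EC50 after 6 hours treatment of U2OS PathHunter cells. In the +GSH arm compounds were first pre-incubated 30 minutes in 6 mM working GSH; NRF2 translocation read by chemiluminescent complementation.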

[5] = Mouse pharmacokinetic study, intravenous dosing; type: in vivo; conditions: male, C57BL/6, mouse, iv, plasma, 10 mg/kg i.v., read-out: Parent compound concentration following intravenous administration
Outline: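 Oral arm: 100 mg/kg gavage in 5% DMSO with 0.5% HPMC/0.1% Tween 80, blood from 5 min to 24 h. Intravenous arm: 10 mg/kg tail-vein injection in 10% DMSO with HP-β-CD, blood from 3 min to 8 h. Male C57BL/6 mice; LC-MS/MS on plasma.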

[6] = system: hepatocytes; experiment: Hepatocyte stability assay (human); type: in vitro ADME; conditions: 10 μM compound, 0.5×10^6 cells/mL, 60 minutes
Description: (§2) Defrosted cryo-preserved hepatocytes (viability >70%) are used to determine the metabolic stability of a compound via calculation of intrinsic clearance (Clint; a measure of the removal of a compound from the liver in the absence of blood flow and cell binding). Clearance data are particularly important for in vitro work as they can be used in combination with in vivo data to predict the half-life and oral bioavailability of a drug.
(§3) The metabolic stability in hepatocytes assay involves a time-dependent reaction using both positive and negative controls. The cells must be pre-incubated at 37° C. then spiked with test compound (and positive control); samples taken at pre-determined time intervals are analysed to monitor the change in concentration of the initial drug compound over 60 minutes. A buffer incubation reaction (with no hepatocytes present) acts as a negative control and two cocktail solutions, containing compounds with known high and low clearance values (verapamil/7-hydroxycoumarin and propranolol/diltiazem), act as positive controls. • 1. The assay is run with a cell concentration of 0.5×10^6 cells/mL in Leibovitz buffer. • 2. All compounds and controls are run in duplicate. • 3. Compound concentration is 10 μM. • 4. All compounds and controls are incubated with both cells and buffer to show turnover is due to hepatic metabolism. • 5. All wells on the incubation plate will have 326.7 μL of either cells or buffer added. • 6. Prior to assay, cell and buffer-only incubation plates are preincubated for 10 mins at 37° C. • 7. The assay is initiated by adding compounds, 3.3 μL of 1 mM in 10% DMSO-90% Buffer; final DMSO concentration is 0.1%. • 8. Samples are taken at regular timepoints (0, 5, 10, 20, 40, 60 min) until 60 mins. • 9. Sample volume is 40 μL and it is added to 160 μL of crash solvent (acetonitrile with internal standard) and stored on ice. • 10. At the end of the assay, the crash plates are centrifuged at 3500 rpm for 20 mins at 4° C. • 11. 80 μL of clear supernatant is removed and mixed with 80 μL of deionised water before being analysed by LC-MS/MS.
(§4) Raw LC-MS/MS data are exported to, and analysed in, Microsoft Excel for determination of intrinsic clearance. The percentage remaining of a compound is monitored using the peak area of the initial concentration as 100%. Intrinsic clearance and half-life values are calculated using a graph of the natural log of percentage remaining versus the time of reaction in minutes. Half-life (min) and intrinsic clearance (Clint in μL min^−1 10^−6 cells) values are calculated using the gradient of the graph (the elimination rate constant, k) and Equations 1 and 2.

[7] = Hepatocyte stability assay (human); type: in vitro ADME; conditions: cryopreserved hepatocytes, 10 μM compound, 0.5×10^6 cells/mL, 60 minutes, read-out: T½
Description: as §2, §3, §4

[8] = system: hepatocytes; experiment: Hepatocyte stability assay (mouse); type: in vitro ADME; conditions: 10 μM compound, 0.5×10^6 cells/mL, 60 minutes
Description: as §2, §3, §4

[9] = Hepatocyte stability assay (mouse); type: in vitro ADME; conditions: cryopreserved hepatocytes, 10 μM compound, 0.5×10^6 cells/mL, 60 minutes, read-out: T½
Description: as §2, §3, §4

[10] = system: IL-1β cytokine output from isolated primary human monocytes; experiment: Primary human monocyte AlphaLISA IL-1β cytokine assay; type: cell-based; conditions: CD14+ primary human monocytes, LPS 24 hr then Nigericin 1 hour
Protocol: Measuring Inhibitory Effects on IL-1β and IL-6 Cytokine Output from Isolated Primary Human Monocytes
The cytokine inhibition profiles of compounds of formula (IW-1) were determined in a CD14^+ isolated primary human monocyte cell assay. All assays were performed in RPMI-1640 growth medium (Gibco), supplemented with heat-inactivated fetal bovine serum (FBS) and 1% penicillin-streptomycin unless specified otherwise. The IL-1β and IL-6 cytokine inhibition assays were each run in a background of isolated primary human monocyte cells as described below. All reagents described were from Sigma-Aldrich unless specified otherwise. Compounds were prepared as 100 mM DMSO stocks.
Primary peripheral blood mononuclear cells (PBMCs) were isolated from human whole blood. Following PBMC isolation, a CD14^+ monocyte isolation step was conducted whereby CD14^+ magnetic beads (Miltenyi Biotec) were incubated for 15 minutes with the PBMC suspension that was previously treated with ice cold T-cell isolation buffer (PBS, 0.5% BSA, 2 mM EDTA). Following bead incubation, the treated cell suspension was passed through a magnetic separation column designed to positively select for magnetically labelled cells. The isolated CD14^+ monocytes were subsequently plated at the appropriate cell density for the assay, prior to compound treatment on the day of plating. Working concentrations of compounds were prepared separately in RPMI-1640 only growth medium and pre-incubated with the cells for 30 minutes (37° C./5% CO2). Following the 30 minute compound pre-incubation, primary monocytes were treated with an appropriate concentration of LPS and subsequently incubated for a 24 hr period (37° C./5% CO2). An appropriate final concentration of Nigericin was then dispensed into the primary monocyte plates and incubated for 1 hour (37° C./5% CO2) before monocyte supernatants were harvested and collected in separate polypropylene 96-well holding plates prior to commencing the AlphaLISA cytokine assay.
Reagents from each of the IL-1β and IL-6 commercial kits (Perkin Elmer) were prepared and run according to the manufacturer's instructions. Subsequently, fluorescence signal was measured in a microplate reader (EnVision® Multilabel Reader, Perkin Elmer).
Percentage inhibition was calculated per cytokine by normalising the sample data to the high and low controls used within each plate (+/−LPS respectively). Percentage inhibition was then plotted against compound concentration and the 50% inhibitory concentration (IC50) was determined from the resultant concentration-response curve.

Row | pIC50 [1] | pIC50 [2] | pEC50 [3] | pEC50 [4] | SMILES | Emax [3] [%] | Emax [4] [%] | CIint (μL min^−1 10^−6 cells) [6] [μL min^−1 10^−6 cells] | CIint (μL min^−1 10^−6 cells) [8] [μL min^−1 10^−6 cells] | further results
1 |  | 4.96 |  |  | C=C(CC(=O)O[C@H]1C[C@H]2CC[C@]1(C)C2(C)C)C(=O)OCC(=O)O [Example 179, 2-((2-methylene-4-oxo-4-(((1R,2S,4R)-1,7,7-trimethylbicyclo[2.2.1]heptan-2-yl)oxy)butanoyl)oxy)acetic acid] |  |  | 13 | 129 | concentration at 0.05 h ([5]; time 0.05 h): 17900 ng/mL; concentration at 0.133 h ([5]; time 0.133 h): 5320 ng/mL; concentration at 0.25 h ([5]; time 0.25 h): 1810 ng/mL; concentration at 0.5 h ([5]; time 0.5 h): 456 ng/mL; concentration at 1 h ([5]; time 1 h): 13 ng/mL; concentration at 2 h ([5]; time 2 h): < 4 ng/mL; concentration at 4 h ([5]; time 4 h): < 4 ng/mL; concentration at 6 h ([5]; time 6 h): < 4 ng/mL; concentration at 8 h ([5]; time 8 h): < 4 ng/mL; half-life at 10 μM [7]: 129 min; half-life at 10 μM [9]: 13 min
2 | 5.85 | 5.82 | 5.59 |  | C=C(CC(=O)OCCCCCCCC)C(=O)OCCN(C)C [Example 17, 1-(2-(dimethylamino)ethyl) 4-octyl 2-methylenesuccinate] | 68 |  |  |  | 

Second part, the compound before the results:

Row | SMILES | pIC50 [1] | pIC50 [2] | pEC50 [3] | pEC50 [4] | Emax [3] [%] | Emax [4] [%] | CIint (μL min^−1 10^−6 cells) [6] [μL min^−1 10^−6 cells] | CIint (μL min^−1 10^−6 cells) [8] [μL min^−1 10^−6 cells] | further results
3 | C=C(CC(=O)OCCCCCC)C(=O)OCCS(C)(=O)=O [Example 14, 4-hexyl 1-(2-(methylsulfonyl)ethyl) 2-methylenesuccinate] | 5.68 | 5.80 | 4.84 | 5.06 | 180 | 189 |  |  | 
4 | C=C(CC(=O)OCCCCCCCC)C(=O)OCCN1CCCC1=O [Example 5, 4-octyl 1-(2-(2-oxopyrrolidin-1-yl)ethyl) 2-methylenesuccinate] | 5.70 | 5.19 | 5.23 | 5.24 | 81 | 216 |  |  | 
5 | C=C(CC(=O)OCCCCCCCC)C(=O)O [4-octyl itaconate, 4-Octyl itaconate, reference compound] |  |  |  |  |  |  | 401 | 351 | T½ [6]: 4 min; T½ [8]: 4 min; pIC50 [10]: < 4.00
6 | C=C(CC(=O)OCCCOc1ccccc1)C(=O)OCCS(C)(=O)=O [Example 20, 1-(2-(methylsulfonyl)ethyl) 4-(3-phenoxypropyl) 2-methylenesuccinate] | 5.47 | 5.25 | 4.70 | 4.87 | 224 | 116 |  |  | 
